Assay results published in patent publication US8993637B2 (priority 2013, dated 2015).

System: RAW 264.7 macrophages
Test: ROS production assay in LPS-activated macrophages
Type: cell-based, murine
Conditions: NAC 10 mM; 30 min before and during LPS (1 μg/ml) stimulation, 0-4 h
Protocol: ROS production was measured as the relative fluorescence intensity. […] The data are expressed as the mean±SD for three separate experiments. *p<0.05, **p<0.01 compared to the LPS-treated group. RAW-Blue™ cells (Murine macrophages RAW264.7 stably transfected with the NF-κB reporter gene) purchased from InvivoGen (San Diego, Calif.). LPS (from Escherichia coli 0111:B4) and mouse antibodies against phospho-ERK1/2, phospho-JNK1/2, and phospho-p38 (all from Sigma, St. Louis, Mo.). Rabbit antibodies against mouse ERK1, JNK1, and p38, and HRP-labeled second antibodies were purchased from Santa Cruz Biotechnology, and IL-1β, IL-6, and TNF-α ELISA kits from R&D Systems. ROS production assay, NO production assay, NF-κB reporter assay, ELISA, and Western blotting were performed as described previously.

SMILES: CC(=O)N[C@@H](CS)C(=O)O [NAC, N-acetyl cysteine, reference compound]
- LPS-induced increase in ROS production: reduced
